Data taken from US11898155B2, “Method for introducing molecule and composition containing inhibitor” (Pearl Kogyo Co., Ltd., priority 2017, dated 2024).

Assays:
L-929 cells [1] = test: Gene transfer efficiency (GFP-expressing cells/viable cell number, Cytell) after plasma introduction with inhibitor treatment; type: cell-based, mouse; conditions: for gene introduction rate: concentration of inhibitor changed, normalized to control without inhibitor = 1 (FIGS. 8 to 11)
Experimental: (§1) Mouse fibroblast L-929 cells were seeded on a 96-well plate and were cultured for 24 h in CO2 incubator. A culture medium was removed by aspiration, and 100 μL of nocodazole (inhibitor) free-culture medium, 1 μM nocodazole-containing culture medium, or 100 μM nocodazole-containing culture medium was added to each well. The cells were cultured for 30 min in CO2 incubator. Next, the culture medium was removed by aspiration, and 6.0 μg/6.0 μL of pAcGFP1-N1 plasmid (selected molecule) solution was added dropwise to each well. The 96-well plate was set in plasma irradiation equipment and irradiated with plasma. Then, 100 μL of culture medium was immediately added, and the plate was returned to CO2 incubator and the cells were cultured for 24 h. The cells after the culturing were observed under a microscope.
A selected molecule was introduced in the same manner as in Example 1, except the point that in the inhibitor treatment step using 1 μM nocodazole, the treatment time was changed from 1 min to 120 min. […] The dashed line denotes the level in the case without adding nocodazole (control, left panel). The gene transfer efficiency (%) was calculated, using a Cytell (Cytell Cell Imaging System, manufactured by GE Healthcare, Inc.), as (the number of GFP-expressing cells/viable cell number).
A selected molecule was introduced in the same manner as in Example 1, except the point that the cells were treated with 5 μM or 15 μM chloroquine diphosphate and the plasma irradiation time was changed.
A selected molecule was introduced in the same manner as in Example 1, except the point that the concentration of nocodazole was changed, to determine cell viability and gene transfer efficiency. The plasma irradiation conditions were at a frequency of 20 kHz, a voltage of 15 kVpp, and an inter-electrode distance of 1 mm and for an irradiation time of 1 msec.
Cell viability and gene transfer efficiency were determined in the same manner as in Example 4, except the point that chloroquine was used as the inhibitor.
Cell viability and gene transfer efficiency were determined in the same manner as in Example 4, except the point that LY-294002 was used as the inhibitor.
Cell viability and gene transfer efficiency were determined in the same manner as in Example 4, except the point that wortmannin was used as the inhibitor.

MDCK cells = test: GFP plasmid introduction by plasma with nocodazole treatment after plasma irradiation, microscope observation; type: cell-based, canine; conditions: 1.0 μM or 0.1 μM nocodazole for 30 min after plasma irradiation; vs without nocodazole treatment (FIG. 13)
Experimental: (§2) By using cells (canine renal epithelial cell MDCK cells or human osteosarcoma cell MG63 cells) different from those in Example 1, gene transfer efficiency was examined when nocodazole treatment was performed after plasma irradiation. Specifically, the following protocol was used to conduct an experiment.
(§3) Canine renal epithelial cell MDCK cells or human osteosarcoma cell MG63 cells were each seeded on a 96-well plate and cultured for 24 h in CO2 incubator. The culture medium was removed by aspiration, and 6.0 μg/6.0 μL of pAcGFP1-N1 plasmid (selected molecule) solution was added dropwise to each well. The 96-well plate was set in plasma irradiation equipment and was irradiated with plasma. Then, 100 μL of nocodazole (inhibitor)-free culture medium, 1 μM nocodazole-containing culture medium, or 0.1 μM nocodazole-containing culture medium was added to each well. The cells were cultured for 30 min in CO2 incubator. After that, the culture medium was removed by aspiration and 100 μL of culture medium was added immediately. The plate was returned to CO2 incubator, and the cells were cultured for 24 h. The cells after the culturing were observed under a microscope. The plasma irradiation conditions were the same as in Example 1.

L-929 cells [2] = test: PCR quantification of remaining plasmid gene at 24 h after introduction; type: cell-based, mouse; conditions: 1 μM nocodazole, from Cq values (FIG. 15)
Experimental: A selected molecule was introduced into mouse fibroblast L-929 cells in the same procedure as in Example 1. The resulting cells were cultured for 24 h. […] The cultured cells were collected from eight wells, and a High Pure PCR Template Preparation Kit (manufactured by Roche, Inc.) was used to recover and purify DNA. Next, 50 ng of the purified DNA was added to a PCR reaction kit SYBR Green I (Fast Start Essential DNA Green Master, manufactured by Roche, Inc.). Each resulting mixture was subjected to 40 cycles of amplification using a PCR machine (LightCycler 96 system, manufactured by Roche, Inc.). […] Each Cq value refers to a value determined by calculating a cycle number after amplification of gene sequence of interest has started and before a quantitative increase (linear increase) is initiated. The cycle number indicated by each arrow in FIG. 15(B) refers to the Cq value. When many copies of the gene sequence of interest are contained, there is a rapid increase in amplification and the Cq value is small. In addition, the inverse number of Cq value is proportional to the initial amount of the gene sequence of interest.

MG63 cells [3] = test: GFP plasmid introduction by plasma with nocodazole treatment before irradiation, microscope observation; type: cell-based, human; conditions: 1.0 μM or 0.1 μM nocodazole before plasma irradiation; vs without nocodazole treatment (FIG. 12)
Experimental: as §1
An experiment was conducted in the same manner as in Experiment 1, except that cells (human osteosarcoma cells, MG63 cells) different from those in Example 1 were used. The concentration of nocodazole was 1 μM or 0.1 μM.

L-929 cells [4] = test: GFP-expressing plasmid introduction by plasma irradiation after inhibitor treatment, microscope observation; type: cell-based, mouse; conditions: 1 μM or 100 μM nocodazole, 30 min before plasma irradiation; compared to the case without nocodazole treatment (FIGS. 2 to 4)
Experimental: as §1
In Example 1, the plasma irradiation conditions were at a frequency of 20 kHz, a voltage of 15 kVpp, and an inter-electrode distance of 1 mm and for an irradiation time of 1 msec or 5 msec.

MG63 cells [5] = test: GFP plasmid introduction by plasma with nocodazole treatment after plasma irradiation, microscope observation; type: cell-based, human; conditions: 1.0 μM or 0.1 μM nocodazole for 30 min after plasma irradiation; vs without nocodazole treatment (FIG. 14)
Experimental: as §2, §3

In the case of `O=c1cc(N2CCOCC2)oc2c(-c3ccccc3)cccc12` [LY-294002, 2-(4-morpholinyl)-8-phenyl-4H-1-benzopyran-4-one], the gene introduction rate (L-929 cells [1]; plasma irradiation 1 msec) is reported as “significantly increased”.

In the case of `CCN(CC)CCCC(C)Nc1ccnc2cc(Cl)ccc12` (stereo not drawn) [chloroquine], the gene transfer efficiency (L-929 cells [1]; chloroquine 5 μM or 15 μM, plasma irradiation time 1 msec to 10 msec, vs cells without chloroquine treatment (std) (FIG. 7(B))) is reported as “increased” and the gene introduction rate (L-929 cells [1]; plasma irradiation 1 msec) is reported as “significantly increased”.

With `COC(=O)Nc1nc2ccc(C(=O)c3cccs3)cc2[nH]1` [nocodazole] the gene transfer efficiency (L-929 cells [1]; 1 μM nocodazole, treatment time 1 min to 120 min, plasma irradiation time 1 msec, vs without nocodazole (FIG. 6(B))) was “marked increase”, the gene transfer efficiency (L-929 cells [1]; 1 μM nocodazole, treatment time 1 min to 120 min, plasma irradiation time 5 msec, vs cells without nocodazole (FIG. 5(B))) was “markedly increased” and the gene introduction rate (L-929 cells [1]; plasma irradiation 1 msec) was “significantly increased”. The “number of GFP-expressing cells” value (MDCK cells) was “increase”, the “amount of exogenous gene DNA remaining in cells relative to cells without nocodazole treatment” value (L-929 cells [2]) was “about 1.44 times” and the “number of GFP-expressing cells” value (MG63 cells [3]) was “increased”. For the same compound, the “number of GFP-expressing cells” value (L-929 cells [4]) was “increased” and the “number of GFP-expressing cells” value (MG63 cells [5]) was “increase”.

For `COC[C@H]1OC(=O)c2coc3c2[C@@]1(C)C1=C(C3=O)[C@@H]2CCC(=O)[C@@]2(C)C[C@H]1OC(C)=O` [wortmannin], the “inhibitor concentration at which the gene transfer efficiency was further markedly increased” value (L-929 cells [1]; plasma irradiation 1 msec, 30 min inhibitor treatment (FIGS. 8 to 11)) was at most 0.01 µM.
